PMC12530850, “Synthesis, antidiabetic evaluation, and computational modeling of 3-acetyl-8-ethoxy coumarin derived hydrazones and thiosemicarbazones” (RSC Advances, 2025)
Several values for one entry are separate records, joined by “and”; a condition that tells them apart may be missing. Equal values may be shown once.

Key:
α-amylase = α-amylase inhibition assay (starch substrate); type: biochemical; settings: pH 6.9, 35 °C
Method: A 0.4 M starch combination was made in 80 mL of NaOH solution and heated to 80 °C for 30 minutes in order to create the starch. After that, 10 μL of various chemical concentrations were combined with 35 μL of starch solution and 35 μL of phosphate buffer (pH 6.9), and the mixture was incubated for 25 minutes at 35 °C. Finally, the final combination was reincubated for 25 minutes after 20 μL of the α-amylase solution was added. Each tube was filled with 50 μL of HCl (0.1 M) to complete the reactions. At 580 nm, the absorbance was measured. The amount of αamylase needed to release one μmol of reducing sugar, which is estimated to be glucose per minute at pH 6.9 and 40 °C, is known as one α-amylase unit.[52,53]

[1] = Antioxidant assay (metal chelating, Fe^2+ binding at 522 nm); settings: Fe^2+ chelating
Method: Fe^2+ chelating ability of novel compounds was predicted according to Dinis et al.[54] with slight modification. Fe^2+-binding capacity of novel compounds was spectrophotometrically recorded at 522 nm. This study was conducted based on previous papers.[55,56]
In this section, we studied the metal chelating method, one of the antioxidant methods for toxicity. To stop the metal ions from serving as catalysts of lipid oxidation, metal-chelating antioxidants are thus added to food products. […] In this study, EDTA was used as a standard.

Structure (SMILES)	IC50 (α-amylase)	Metal chelating (IC50) [1] [µg/mL]
COc1cccc2cc(/C(C)=N/NC(=S)NCc3ccccc3)c(=O)oc12 [Compound 5a, (E)-N-Benzyl-2-[1-(8-methoxy-2-oxo-2H-chromen-3-yl)ethylidene]hydrazine-1-carbothioamide]	264.5 ± 2.64 nM	>100
CCOc1cccc2cc(/C(C)=N/NC(=O)c3ccccc3OC)c(=O)oc12 [Compound 3d, (E)-N′-[1-(8-Ethoxy-2-oxo-2H-chromen-3-yl)ethylidene]-2-methoxybenzohydrazide]	177 ± 8.25 nM	>100
O=C(O)CN(CCN(CC(=O)O)CC(=O)O)CC(=O)O [EDTA, Ethylenediaminetetraacetic acid, reference compound]	–	66.82 ± 0.40
CCOc1cccc2cc(/C(C)=N/NC(=O)c3ccc(Br)cc3)c(=O)oc12 [Compound 3c, (E)-4-Bromo-N′-[1-(8-ethoxy-2-oxo-2H-chromen-3-yl)ethylidene]benzohydrazide]	209 ± 12.4 nM	>100
COc1cccc2cc(/C(C)=N/NC(N)=S)c(=O)oc12 [Compound 5e, (E)-2-[1-(8-Methoxy-2-oxo-2H-chromen-3-yl)ethylidene]hydrazine-1-carbothioamide]	146 ± 7.35 nM	35.96 ± 0.52
CCOc1cccc2cc(/C(C)=N/NC(=O)c3c[nH]c4ccccc34)c(=O)oc12 [Compound 3f, (E)-N′-[1-(8-Ethoxy-2-oxo-2H-chromen-3-yl)ethylidene]-1H-indole-3-carbohydrazide]	425 ± 11.1 nM	>100
CCOc1cccc2cc(/C(C)=N/NC(=O)c3cccs3)c(=O)oc12 [Compound 3a, (E)-N′-[1-(8-Ethoxy-2-oxo-2H-chromen-3-yl)ethylidene]thiophene-2-carbohydrazide]	430 ± 7.6 nM	>100
COc1cccc2cc(/C(C)=N/NC(=S)NCC(C)C)c(=O)oc12 [Compound 5d, (E)-N-Isobutyl-2-[1-(8-methoxy-2-oxo-2H-chromen-3-yl)ethylidene]hydrazine-1-carbothioamide]	237 ± 3.43 nM	50.38 ± 0.04
COc1cccc2cc(/C(C)=N/NC(=S)Nc3ccc(C)cc3C)c(=O)oc12 [Compound 5b, (E)-N-(2,4-Dimethylphenyl)-2-[1-(8-methoxy-2-oxo-2H-chromen-3-yl)ethylidene] hydrazine-1-carbothioamide]	198 ± 6.04 nM	58.06 ± 0.08
COc1cccc2cc(/C(C)=N/NC(=S)NCc3ccc(C)cc3)c(=O)oc12 [Compound 5c, (E)-2-[1-(8-Methoxy-2-oxo-2H-chromen-3-yl)ethylidene]-N-(4-methylbenzyl) hydrazine-1-carbothioamide]	128 ± 2.82 nM	43.55 ± 0.10
CCOc1cccc2cc(/C(C)=N/NC(=O)c3ccco3)c(=O)oc12 [Compound 3g, (E)-N′-[1-(8-Ethoxy-2-oxo-2H-chromen-3-yl)ethylidene]furan-2-carbohydrazide]	189 ± 9.65 nM	>100
CCOc1cccc2cc(/C(C)=N/NC(=O)c3cnccn3)c(=O)oc12 [Compound 3e, (E)-N′-[1-(8-Ethoxy-2-oxo-2H-chromen-3-yl)ethylidene]pyrazine-2-carbohydrazide]	479 ± 8.7 nM	>100
CCOc1cccc2cc(/C(C)=N/NC(=O)c3ccc(F)cc3)c(=O)oc12 [Compound 3b, (E)-N′-[1-(8-Ethoxy-2-oxo-2H-chromen-3-yl)ethylidene]-4-fluorobenzohydrazide]	252 nM and 159 nM	>100
